Series [1] in a line: Cytotoxicity against human BC cells. Format: cell-based.
The target in series [2] is Tyrosinase (Agaricus bisporus). Put plainly: Inhibition of tyrosinase.
For series [3], the system named is KB. The series can be described thus: Cytotoxicity against human KB cells. In kind it is cell-based.
Series [4] in a line: Cytotoxicity against human NCI-H187 cells. In kind it is cell-based.
The subject of series [5] is KB. Put plainly: Cytotoxicity against human KB cells at 20 ug/ml. Format: cell-based.
The nature of series [6]: Cytotoxicity against human NCI-H187 cells at 20 ug/ml. Format: cell-based.
Series [7] deals with T1, Tyrosinase (Agaricus bisporus, UniProt O42713).
T1 sequence (O42713 whole entry): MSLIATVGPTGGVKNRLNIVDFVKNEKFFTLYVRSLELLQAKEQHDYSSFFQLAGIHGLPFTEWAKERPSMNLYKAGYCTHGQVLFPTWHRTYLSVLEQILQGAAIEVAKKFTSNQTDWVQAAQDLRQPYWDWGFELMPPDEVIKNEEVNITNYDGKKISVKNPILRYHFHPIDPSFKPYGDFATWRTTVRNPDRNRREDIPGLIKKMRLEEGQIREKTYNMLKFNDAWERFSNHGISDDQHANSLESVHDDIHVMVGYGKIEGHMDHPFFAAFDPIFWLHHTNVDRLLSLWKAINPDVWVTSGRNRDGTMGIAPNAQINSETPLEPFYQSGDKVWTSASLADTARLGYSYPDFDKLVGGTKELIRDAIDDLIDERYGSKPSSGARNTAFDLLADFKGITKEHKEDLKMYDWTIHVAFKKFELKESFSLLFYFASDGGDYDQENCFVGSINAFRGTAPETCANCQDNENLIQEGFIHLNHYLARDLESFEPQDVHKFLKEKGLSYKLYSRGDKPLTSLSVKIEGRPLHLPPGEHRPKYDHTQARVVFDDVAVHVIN
Put plainly: Inhibition of mushroom tyrosinase at 2.4 uM.

Series [8] is described as follows: Cytotoxicity against human BC cells at 20 ug/ml. Format: cell-based.
Series [9] concerns the target T1, Tyrosinase. Put plainly: Inhibition of mushroom tyrosinase at 1.2 uM.
Series [10] concerns the target T1, Tyrosinase. The series can be described thus: Inhibition of mushroom tyrosinase at 18.4 uM.
Series [11] addresses T1, Tyrosinase. Put plainly: Inhibition of mushroom tyrosinase at 9.2 uM.

The structures appear in SMILES notation. A value given as a limit tells only on which side of the number the result lay.

For `COc1cc(O)cc(/C=C/c2ccc(OC)cc2O)c1`, the IC50 is 13.9 µM in series [1], more than 100 µM in series [2], 16.5 µM with KB [3] and 33.5 µM in [4].

Take `COc1cc(O)ccc1/C=C/c1cc(O)cc(O)c1`: the IC50 was 66.6 µM in series [1] and more than 100 µM in series [2]. The Activity (in the series with KB [5]; in [6]) was less than 50% in each case.

As for `COc1cc(O)cc(/C=C/c2ccc(O)cc2OC)c1`, the half-inhibitory concentration (IC50) was 10.8 µM in [1], more than 100 µM in series [2], 5.5 µM with KB [3] and 10.9 µM in [4].

As to `Oc1cc(O)cc(CCc2ccc(O)cc2O)c1`, the inhibition constant Ki was 5.6 µM on Tyrosinase [7] and 4.8 µM at Tyrosinase [9]. The Activity (in series [8]; in the series with KB [5]; in series [6]) was less than 50% each time. Further, in series [2], the half-maximal inhibitory concentration (IC50) is 1.6 µM.

Turning to `COc1cc(/C=C\c2ccc(OC)cc2OC)cc(OC)c1`, the figures for the IC50 (in [1]; with KB [3]; in series [4]) were 1 µM, 0.3 µM and 0.3 µM, respectively.

For `COc1cc(CCc2ccc(OC)cc2OC)cc(OC)c1`, the Activity (in series [8]; with KB [5]; in [6]) was less than 50% each time. Further, the IC50 in [2] was more than 100 µM.

Take `COc1cc(/C=C/c2ccc(OC)cc2OC)cc(OC)c1`: the IC50 in series [1] worked out at 5.6 µM; in the series on KB [3], 8.6 µM; in series [4], 8 µM.

As to `COc1cccc2c1C(=O)c1c(O)c3c(c(O)c1C2=O)C[C@@](O)(C(=O)CO)C[C@@H]3O[C@H]1C[C@H](N)[C@H](O)[C@H](C)O1` [DOXORUBICIN], the figures for the half-inhibitory concentration (IC50) in [1] and in series [4] were 0.5 µM and 0.1 µM, respectively.

Consider `Cc1c2ccncc2c(C)c2c1[nH]c1ccccc12` [ELLIPTECINE], for which the 50% inhibitory concentration (IC50) in series [1] came to 2.7 µM; in the series with KB [3] it was 2.4 µM; in [4], 1.9 µM.

On to `Oc1cc(O)cc(/C=C/c2ccc(O)cc2O)c1` [OXYRESVERATROL], for which the Activity (in series [8]; with KB [5]; in [6]) was less than 50% throughout. Besides, the figures for the Ki on Tyrosinase [10] and on Tyrosinase [11] were 28 µM and 22 µM, respectively.

One may read the IC50 as the concentration that inhibits the measured activity by half. Read a low IC50 as greater potency in that assay. For orientation: Ki means a measure of affinity in units of concentration, obtained from inhibition or displacement. A lower Ki goes with higher affinity.
